Assays:
[1] = target: T1, TRPV4 (Homo sapiens, UniProt Q9HBA0); conditions: 4α-phorbol 12,13-didecanoate stimulation; cited from earlier work
[2] = test system: E-cadherin, b-catenin and paxillin; assay: Expression of cell-adhesion proteins after activation of TRPV4 by PDD; assay type: cell-based; conditions: PDD treatment, FIG. 4B
Excerpt: (§1) FIG. 4A—Silencing of TRPV4 expression was associated with a failure to produce a rise of intracellular Ca2+ upon stimulation with PDD. […] 4C—Activation of TRPV4 by PDD treatment stimulated AKT, FAK and MAPK pathway.
FIG. 5—AKT mediates TRPV4-induced downregulation of E-cadherin and b-catenin. Down regulation of these cytoskeletal proteins correlate with an increase in cancer cell plasticity required for intravasation and extravasation processes during metastasis. Cells were either treated or not treated with PDD (activator of TRPV4) in the presence or absence of AKT inhibitor). Top 1 and 2 panels, inhibition of AKT is confirmed by probing the phosphorylation status of S6, a downstream target of AKT. Bottom 3-5 panels, PDD-induced downregulation of E-cadherin and b-catenin.

[3] = test system: AKT, FAK and MAPK pathway; assay: Pathway activation after activation of TRPV4 by PDD; assay type: cell-based; conditions: PDD treatment, FIG. 4C
Excerpt: as §1

[4] = target: T2, endogenous TRPV4 (Mus musculus, UniProt Q9EPK8); conditions: read-out: IC50, endogenous TRPV4-mediated response to 4α-PDH; 4α-PDH stimulation; cited from earlier work
T2 construct: endogenous in cells

[5] = cited from earlier work
[6] = target: T1, TRPV4; conditions: cited from earlier work

T1 sequence (Q9HBA0 whole entry, species assumed): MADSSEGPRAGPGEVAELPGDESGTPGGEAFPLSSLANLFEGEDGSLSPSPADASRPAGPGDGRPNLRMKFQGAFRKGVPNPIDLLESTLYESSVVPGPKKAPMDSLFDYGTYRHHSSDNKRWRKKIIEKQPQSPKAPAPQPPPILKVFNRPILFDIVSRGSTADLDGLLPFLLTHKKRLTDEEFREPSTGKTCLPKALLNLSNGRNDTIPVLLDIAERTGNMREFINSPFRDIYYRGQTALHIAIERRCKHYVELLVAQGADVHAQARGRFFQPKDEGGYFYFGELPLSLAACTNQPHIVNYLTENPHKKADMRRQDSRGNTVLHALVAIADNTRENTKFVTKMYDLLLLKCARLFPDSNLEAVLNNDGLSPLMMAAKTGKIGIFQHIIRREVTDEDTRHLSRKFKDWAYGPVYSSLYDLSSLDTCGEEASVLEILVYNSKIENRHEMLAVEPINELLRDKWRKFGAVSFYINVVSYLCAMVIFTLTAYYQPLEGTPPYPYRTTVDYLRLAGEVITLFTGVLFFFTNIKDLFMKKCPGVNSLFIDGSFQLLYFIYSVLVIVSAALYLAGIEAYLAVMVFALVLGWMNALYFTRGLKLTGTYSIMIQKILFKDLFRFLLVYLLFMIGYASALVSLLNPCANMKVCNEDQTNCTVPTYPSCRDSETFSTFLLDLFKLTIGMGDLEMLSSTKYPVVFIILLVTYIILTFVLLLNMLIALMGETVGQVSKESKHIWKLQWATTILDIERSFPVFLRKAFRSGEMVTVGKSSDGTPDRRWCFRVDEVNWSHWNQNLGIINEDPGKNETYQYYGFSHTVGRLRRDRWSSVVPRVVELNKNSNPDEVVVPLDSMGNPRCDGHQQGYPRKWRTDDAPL
T2 sequence (Q9EPK8 whole entry): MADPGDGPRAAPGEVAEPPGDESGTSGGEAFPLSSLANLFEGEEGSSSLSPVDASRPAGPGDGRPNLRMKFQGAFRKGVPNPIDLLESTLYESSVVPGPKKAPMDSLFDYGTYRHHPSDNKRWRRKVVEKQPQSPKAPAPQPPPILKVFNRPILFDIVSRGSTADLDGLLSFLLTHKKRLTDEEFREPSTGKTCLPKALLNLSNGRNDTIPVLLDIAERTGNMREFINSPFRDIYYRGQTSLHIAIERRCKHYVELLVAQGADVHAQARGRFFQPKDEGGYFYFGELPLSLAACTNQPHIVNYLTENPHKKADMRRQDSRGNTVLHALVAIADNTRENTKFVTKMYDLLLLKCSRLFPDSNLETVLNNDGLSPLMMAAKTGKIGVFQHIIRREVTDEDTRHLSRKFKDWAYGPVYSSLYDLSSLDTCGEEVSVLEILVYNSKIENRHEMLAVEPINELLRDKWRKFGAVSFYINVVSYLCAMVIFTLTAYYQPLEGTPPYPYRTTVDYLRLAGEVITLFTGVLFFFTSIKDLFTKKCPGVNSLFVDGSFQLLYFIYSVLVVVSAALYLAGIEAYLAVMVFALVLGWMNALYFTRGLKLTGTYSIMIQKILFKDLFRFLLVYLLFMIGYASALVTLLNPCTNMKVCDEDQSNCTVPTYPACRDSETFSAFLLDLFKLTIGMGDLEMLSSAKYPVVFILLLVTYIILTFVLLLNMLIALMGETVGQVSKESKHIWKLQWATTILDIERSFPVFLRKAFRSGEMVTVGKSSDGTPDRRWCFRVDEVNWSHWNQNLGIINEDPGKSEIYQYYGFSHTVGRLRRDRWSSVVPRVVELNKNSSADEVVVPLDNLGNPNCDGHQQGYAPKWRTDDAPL

SMILES: Cc1c(C(=O)Nc2cccc(C(F)(F)F)c2)cc(-c2ccccc2)n1CCCN1CCOCC1 [formula 3]
- Effect on 4α-PDD-induced Ca2+ responses [1]: reduces

SMILES: CCCCCCCCCC(=O)O[C@@H]1[C@@H](C)[C@@]2(O)[C@@H](C=C(CO)C[C@@]3(O)C(=O)C(C)=C[C@@H]23)[C@@H]2C(C)(C)[C@]12OC(=O)CCCCCCCCC [PDD, 4α-phorbol 12,13-didecanoate]
- Expression of cell-adhesion proteins like E-cadherin, b-catenin and paxillin [2]: reduced
- AKT, FAK and MAPK pathway activation [3]: stimulated

SMILES: Cc1c(C(=O)Nc2cccc(C(F)(F)F)c2)cc(-c2ccccc2)n1CCCN1CCOCC1 [formula 1, 2-Methyl-1-[3-(4-morpholinyl)propyl]-5-phenyl-N-[3-(trifluoromethyl)phenyl]-1H-pyrrole-3-carboxamide]
- IC50 [4]: 22 nM
- Solubility in DMSO ([5]; DMSO): 100 mM
- Solubility in ethanol ([5]; ethanol): 25 mM

SMILES: N.N.N.N.N.N.N.N.N.N.N.N.N.N.[Cl-].[Cl-].[Cl-].[Cl-].[Cl-].[Cl-].[O-2].[O-2].[Ru+3].[Ru+3].[Ru+4] [Ruthenium red]
- Inhibition of TRPV4 [6]: known inhibitor of TRPV4
